According to patent US7488740B2, “Substituted quinolin-4-ylamine analogues” (Neurogen Corporation, priority 2003, dated 2009):

Biological target: T1, human capsaicin receptor (Homo sapiens, UniProt Q8NER1)
T1 construct: A cDNA encoding full length human capsaicin receptor recited in U.S. Pat. No. 6,482,611 was subcloned in the plasmid pBK-CMV; expressed in transfected cells
Assay: Calcium mobilization assay (Example 6)
Format: cell-based
Conditions: concentration required to provide a 50% decrease in the fluorescence response of cells exposed to one IC50 of capsaicin
Procedure: Human embryonic kidney (HEK293) cells were transfected with the pBK-CMV expression construct encoding the full length human capsaicin receptor using standard methods. The transfected cells were selected for two weeks in media containing G418 (400 μg/ml) to obtain a pool of stably transfected cells. Independent clones were isolated from this pool by limiting dilution to obtain clonal stable cell lines for use in subsequent experiments.
Cells transfected with expression plasmids (as described in Example 4) and thereby expressing human capsaicin receptor are seeded and grown to 70-90% confluency in FALCON black-walled, clear-bottomed 96-well plates (#3904, BECTON-DICKINSON, Franklin Lakes, N.J.). The culture medium is emptied from the 96 well plates and FLUO-3 AM calcium sensitive dye (Molecular Probes, Eugene, Oreg.) is added to each well (dye solution: 1 mg FLUO-3 AM, 440 μL DMSO and 440 μl 20% pluronic acid in DMSO, diluted 1:250 in Krebs-Ringer HEPES (KRH) buffer (25 mM HEPES, 5 mM KCl, 0.96 mM NaH2PO4, 1 mM MgSO4, 2 mM CaCl2, 5 mM glucose, 1 mM probenecid, pH 7.4), 50 μl diluted solution per well). Plates are covered with aluminum foil and incubated at 37° C. for 1-2 hours in an environment containing 5% CO2. After the incubation, the dye is emptied from the plates, and the cells are washed once with KRH buffer, and, resuspended in KRH buffer.
Agonist (e.g., olvanil, capsaicin, or RTX)-induced calcium mobilization is monitored using either FLUOROSKAN ASCENT (Labsystems, Franklin, Mass.) or FLIPR (fluorometric imaging plate reader system, Molecular Devices, Sunnyvale, Calif.) instruments. Varying concentrations of the antagonists ruthenium red or capsazepine (RBI; Natick, Mass.) are added to cells concurrently with agonist (e.g., 25-50 nM capsaicin). For agonist-induced calcium responses, data obtained between 30 and 60 seconds after agonist application are used to generate the IC50 values. KALEIDAGRAPH software (Synergy Software, Reading, Pa.) is used to fit the data to the equation: y=a*(1/(1+(b/x)^c)) to determine the IC50 for the response. In this equation, y is the maximum fluorescence signal, x is the concentration of the agonist or antagonist, a is the Emax, b corresponds to the IC50 value and c is the Hill coefficient.
To measure the ability of a test compound to antagonize (inhibit) the response of cells expressing capsaicin receptors to capsaicin or other vanilloid agonist, the IC50 of capsaicin is first determined. An additional 20 μl of KRH buffer and 1 μl DMSO is added to each well of cells, prepared as described above. 100 μl capsaicin in KRH buffer is automatically transferred by the FLIPR instrument to each well. An 8-point concentration response curve, with final capsaicin concentrations of 1 nM to 3 μM, is used to determine capsaicin IC50.
Test compounds are dissolved in DMSO, diluted in 20 μl KRH buffer so that the final concentration of test compounds in the assay well is between 1 μM and 5 μM, and added to cells prepared as described above. The 96 well plates containing prepared cells and test compounds are incubated in the dark, at room temperature for 0.5 to 6 hours. It is important that the incubation not continue beyond 6 hours. Just prior to determining the fluorescence response, 100 μl capsaicin in KRH buffer at twice the IC50 concentration determined from the concentration response curve is automatically added by the FLIPR instrument to each well of the 96 well plate for a final sample volume of 200 μl and a final capsaicin concentration equal to the IC50. The final concentration of test compounds in the assay wells is between 1 μM and 5 μM. […] Antagonists of the capsaicin receptor decrease this response by at least about 20%, preferably by at least about 50%, and most preferably by at least 80% as compared to matched control. The concentration of antagonist required to provide a 50% decrease is the IC50 for the antagonist, and is preferably below 1 micromolar, 100 nanomolar, 10 nanomolar or 1 nanomolar. […]

T1 sequence (Q8NER1 whole entry): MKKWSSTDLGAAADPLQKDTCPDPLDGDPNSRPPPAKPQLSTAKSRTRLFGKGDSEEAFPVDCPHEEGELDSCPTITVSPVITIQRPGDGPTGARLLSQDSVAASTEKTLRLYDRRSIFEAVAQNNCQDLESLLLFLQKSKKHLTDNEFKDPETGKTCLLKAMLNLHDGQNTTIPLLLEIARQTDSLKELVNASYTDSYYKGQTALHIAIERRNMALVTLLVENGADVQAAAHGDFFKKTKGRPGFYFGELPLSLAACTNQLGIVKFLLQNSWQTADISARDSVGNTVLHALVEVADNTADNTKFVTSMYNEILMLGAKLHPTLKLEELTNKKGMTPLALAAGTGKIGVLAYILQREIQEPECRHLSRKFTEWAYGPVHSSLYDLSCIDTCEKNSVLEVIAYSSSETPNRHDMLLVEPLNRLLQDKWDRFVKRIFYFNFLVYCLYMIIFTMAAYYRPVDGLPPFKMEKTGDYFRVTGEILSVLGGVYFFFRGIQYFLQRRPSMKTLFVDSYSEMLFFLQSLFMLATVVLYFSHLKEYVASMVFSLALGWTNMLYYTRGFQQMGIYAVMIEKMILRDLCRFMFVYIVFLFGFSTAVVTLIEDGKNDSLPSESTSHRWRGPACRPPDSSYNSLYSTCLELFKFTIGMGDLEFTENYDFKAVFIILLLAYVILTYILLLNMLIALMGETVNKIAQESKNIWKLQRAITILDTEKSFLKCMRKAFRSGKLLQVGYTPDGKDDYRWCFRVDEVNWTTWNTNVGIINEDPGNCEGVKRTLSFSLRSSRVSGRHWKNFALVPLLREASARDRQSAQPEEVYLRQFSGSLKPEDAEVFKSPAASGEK

Row | SMILES | IC50
1 | CC(C)COCc1cc(Nc2ccccn2)c2ccc(-c3ncccc3C(F)(F)F)nc2n1 [Compound 84, 2-(isobutoxymethyl)-N-pyridin-2-yl-7-[3-(trifluoromethyl)pyridin-2-yl]-1,8-naphthyridin-4-amine] | ≤ 1000 nM
2 | CC(C)COCc1cc(Nc2ccc(S(C)(=O)=O)cc2)c2ccc(-c3ncccc3C(F)(F)F)nc2n1 [Compound 65, 2-(isobutoxymethyl)-N-[4-(methylsulfonyl)phenyl]-7-[3-(trifluoromethyl)pyridin-2-yl]-1,8-naphthyridin-4-amine] | ≤ 1000 nM
3 | CC(C)COCc1cc(Nc2ccc(S(=O)(=O)N(C)C)cc2)c2ccc(-c3ncccc3C(F)(F)F)nc2n1 [Compound 68, 4-({2-(isobutoxymethyl)-7-[3-(trifluoromethyl)pyridin-2-yl]-1,8-naphthyridin-4-yl]amino)-N,N-dimethylbenzenesulfonamide] | ≤ 1000 nM
4 | CN(Cc1cc(Nc2ccc(C(F)(F)F)cc2)c2ccc(-c3ncccc3C(F)(F)F)nc2n1)S(C)(=O)=O [Compound 70, N-methyl-N-({4-{[4-(trifluoromethyl)phenyl]amino}-7-[3-(trifluoromethyl)pyridin-2-yl]-1,8-naphthyridin-2-yl}methyl)methanesulfonamide] | ≤ 1000 nM
5 | CC(C)COc1cc(Nc2ccc(C(C)(C)C)cc2)c2ccc(-c3ncccc3C(F)(F)F)cc2n1 [Compound 19, N-(4-tert-butylphenyl)-2-isobutoxy-7-[3-(trifluoromethyl)pyridin-2-yl]quinolin-4-amine] | ≤ 1000 nM
6 | FC(F)(F)c1ccc(Nc2cc(C3CCC3)nc3nc(-c4ncccc4C(F)(F)F)ccc23)nc1 [Compound 98, 2-cyclobutyl-7-[3-(trifluoromethyl)pyridin-2-yl]-N-[5-(trifluoromethyl)pyridin-2-yl]-1,8-naphthyridin-4-amine] | ≤ 1000 nM
7 | FC(F)(F)c1ccc(Nc2ccnc3cc(-c4ncccc4C(F)(F)F)ccc23)nc1 [Compound 109, 7-[3-(trifluoromethyl)pyridin-2-yl]-N-[5-(trifluoromethyl)pyridin-2-yl]quinolin-4-amine] | ≤ 1000 nM
8 | CC(C)CCNc1cc(Nc2ccc(C(C)(C)C)cc2)c2ccc(-c3ncccc3C(F)(F)F)cc2n1 [Compound 29, N~4~-(4-tert-butylphenyl)-N~2~-isopentyl-7-[3-(trifluoromethyl)pyridin-2-yl]quinoline-2,4-diamine] | ≤ 1000 nM

Second part, the compound after the results:

Row | IC50 | SMILES
9 | ≤ 1000 nM | CCCc1cc(Nc2ccc(S(C)(=O)=O)cn2)c2ccc(-c3ncccc3C(F)(F)F)nc2n1 [Compound 123, N-[5-(methylsulfonyl)pyridin-2-yl]-2-propyl-7-[3-(trifluoromethyl)pyridin-2-yl]-1,8-naphthyridin-4-amine]
10 | ≤ 1000 nM | Cc1ccc(Nc2ccnc3nc(-c4ncccc4C(F)(F)F)ccc23)nc1 [Compound 140, N-(5-methylpyridin-2-yl)-7-[3-(trifluoromethyl)pyridin-2-yl]-1,8-naphthyridin-4-amine]
11 | ≤ 1000 nM | C[C@@H](OCc1cc(Nc2ccc(C(F)(F)F)cc2)c2ccc(-c3ncccc3C(F)(F)F)nc2n1)C(C)(C)O [Compound 86, 2-methyl-3-({4-{[4-(trifluoromethyl)phenyl]amino}-7-[3-(trifluoromethyl)pyridin-2-yl]-1,8-naphthyridin-2-yl}methoxy)butan-2-ol]
12 | ≤ 1000 nM | FC(F)(F)c1ccc(Nc2cc(CN3CCCC3)nc3nc(-c4ncccc4C(F)(F)F)ccc23)nc1 [Compound 95, 2-(pyrolidin-1-ylmethyl)-7-[3-(trifluoromethyl)pyridin-2-yl]-N-[5-(trifluoromethyl)pyridin-2-yl]-1,8-naphthyridin-4-amine]
13 | ≤ 1000 nM | Cc1cccnc1-c1ccc2c(Nc3cnc(C(F)(F)F)cn3)ccnc2n1 [Compound 144, 7-(3-methylpyridin-2-yl)-N-[5-(trifluoromethyl)pyrazin-2-yl]-1,8-naphthyridin-4-amine]
14 | ≤ 1000 nM | COCc1cc(Nc2ccc(Cl)c(F)c2)c2ccc(-c3ncccc3C(F)(F)F)nc2n1 [Compound 10, N-(4-chloro-3-fluorophenyl)-2-(methoxymethyl)-7-[3-(trifluoromethyl)pyridin-2-yl]-1,8-naphthyridin-4-amine]
